Experiments:
KPC-2838c3 cells = test: VHL proficient mouse syngeneic pancreatic tumor model; assay type: in vivo, C57BL/6J mice; details: for Final CRs (complete tumor regressions) / Final PRs (partial tumor regressions): 10 mice per group; for Final CRs (complete tumor regressions): CR = no observable tumor; for Final PRs (partial tumor regressions): PR = tumor volume lower than original size when treatment began; for TGI (tumor growth inhibition): Day 24, MK-6482 3 mg/kg BID oral, lenvatinib 10 mg/kg QD oral, anti-PD-1 10 mg/kg i.p. every 5 days
Source text: Prior to treatment initiation, female C57BL/6J mice aged 7 weeks weighing between 18 to 21 grams were anesthetized and injected into the rear flank with 0.5×10^6 log-phase sub-confluent KPC-2838c3 cells. Ten (10) days later when the mean tumor volume of inoculated animals reached approximately 95 mm^3, mice were pair-matched into 8 treatment groups consisting of 10 mice per group. Treatment groups consisted of: 1) 0.5% methylcellulose (Vehicle)+Isotype mouse IgG1 antibody (mIgG1); 2) MK-6482+mIgG1; 3) Lenvatinib+mIgG1; 4) Vehicle+anti-mouse PD-1 IgG1 antibody; 5) MK-6482+anti-PD-1; 6) Lenvatinib+anti-PD-1; 7) MK-6482+Lenvatinib; 8) MK-6482+Lenvatinib+anti-PD-1. Vehicle and MK-6482 were orally gavage-dosed twice daily (BID) at 3 mg/kg body weight. Lenvatinib was orally dosed once daily (QD) at 10 mg/kg body weight. Isotype control, a mouse monoclonal antibody specific for adenoviral hexon of the isotype IgG1, and anti-PD-1 antibodies were dosed intraperitoneally every 5 days at 10 mg/kg body weight. Start of treatments was considered Day 0 and dosing based on schedules continued as described until Day 45. Caliper measurements of tumors and body weights were captured twice weekly. Statistical analyses were performed by one-way ANOVA with Tukey multiple comparison tests at the timepoints specified when treatment groups reached endpoints.
CRs were defined as no observable tumor whereas PRs were tumors whose volume was lower than the original tumor size when treatment began. There was no significant body weight loss or adverse events observed in any animals treated with the above therapies, indicating the treatments were well tolerated.

[1] = Phase 1 cross-over food-effect PK study of single dose MK-6482 in healthy volunteers; assay type: in vivo, human; details: single dose of 120 mg, healthy female adult volunteers
[2] = FIH Phase 1 study of tolerability, safety, PK and PD of MK-6482 in participants with advanced solid tumors; assay type: in vivo, human
Description: As of 6 Sep. […] 52 additional participants with advanced RCC were treated in an expansion cohort (Part 1B) at the clinical dose of 120 mg QD.

[3] = Phase 2 open-label efficacy and safety study in VHL disease associated RCC; assay type: in vivo, human; details: 120 mg QD, 61 participants with VHL disease associated RCC
Source text: A Phase 2, open-label efficacy and safety study in participants with VHL disease associated RCC is ongoing. As of 6 Sep.

[4] = combined dose escalation and expansion cohorts
[5] = dose escalation (Part 1A) 20 to 240 mg QD and 120 mg BID

Row | SMILES | Final CRs (complete tumor regressions) (KPC-2838c3 cells) | Final PRs (partial tumor regressions) (KPC-2838c3 cells) | TGI (tumor growth inhibition) (KPC-2838c3 cells) | delay of time to peak MK-6482 exposure, median difference (Fed-Fasted) [1] | most common adverse event (AE) reported: headache [1] | effect of high fat, high calorie meal on extent of MK-6482 exposure ([1]; fed vs fasted) | lowering of maximum plasma MK-6482 concentration by high fat, high calorie meal ([1]; fed vs fasted) | Grade 3 event of hypoxia (DLT) ([2]; 120 mg BID cohort) | accumulation from Day 1 to Day 15 ([2]; 120 mg QD expansion cohort (Part 1B)) | Cmax ([2]; 120 mg QD expansion cohort (Part 1B), Day 15, read-out: mean steady state Cmax) | Grade 4 event of thrombocytopenia (DLT) ([2]; 240 mg QD cohort) | most common AEs (occurring in ≥20% of participants) [2, 4] | most common Grade 3 AEs (in ≥5% of participants) [2, 4] | MTD [2, 5] | treatment-related DLTs observed [2, 5] | Vd/F ([2]; human, in vivo) | estimated CL/F ([2]; human, in vivo) | Tmax ([2]; human, in vivo, participants with advanced solid tumors, oral, read-out: median tmax) | exposure versus dose ([2]; participants with advanced solid tumors) | most common AE of ≥Grade 3 toxicity (reported by ≥5% of participants) [3]
1 | COc1cc2nccc(Oc3ccc(NC(=O)NC4CC4)c(Cl)c3)c2cc1C(N)=O [Lenvatinib, 4-[3-chloro-4-(cyclopropylaminocarbonyl)aminophenoxy]-7-methoxy-6-quinolinecarboxamide] | 0/10 PRs, 0/10 CRs | 0/10 PRs, 0/10 CRs | 90% | – | – | – | – | – | – | – | – | – | – | – | – | – | – | – | – | –
2 | CS(=O)(=O)c1ccc(Oc2cc(F)cc(C#N)c2)c2c1[C@H](O)[C@H](F)[C@@H]2F [MK-6482, 3-[(1S,2S,3R)-2,3-difluoro-1-hydroxy-7-methylsulfonyl-indan-4-yl]oxy-5-fluoro-benzonitrile] | 0/10 PRs, 0/10 CRs | 0/10 PRs, 0/10 CRs | 16% | 2 h | 12.5% | did not affect | approximately 35% | 1 | 1.5 fold | 4.67 µM | 1 | anemia, fatigue, dyspnea, nausea, and peripheral edema | anemia and hypoxia | not reached | 2 | 106 to 266 L | 5.22 to 14.4 L/h | 1 to 2.8 h | exposure increased with dose | Fatigue

Source: patent US20230250182A1, “METHODS FOR TREATING CANCER OR VON-HIPPEL LINDAU DISEASE USING A COMBINATION OF A PD-1 ANTAGONIST, A HIF-2 ALPHA INHIBITOR, AND LENVATINIB OR A PHARMACEUTICALLY ACCEPTABLE SALT THEREOF” (Merck Sharp & Dohme LLC, priority 2020, published 2023)
